Assay results published in PMC4633044, “Quorum Sensing Peptides Selectively Penetrate the Blood-Brain Barrier” (PLoS ONE, 2015).

Tests used:
[1] = mouse, in vivo, iv
[2] = tested on: mouse brain capillaries / parenchyma; conditions: in vivo, iv
[3] = 0, 30, 120 min
[4] = tested on: mouse brain (blood-brain barrier); conditions: in vivo; for Kin / Kin (text): iv
[5] = tested on: mouse brain (blood-brain barrier); conditions: in vivo
[6] = tested on: mouse brain (blood-brain barrier); conditions: general value for the positive control; cited from earlier work
Text: To evaluate these transport results, we compared them with the net clearances of oth ...

Substance	Tissue distribution (in words) [1]	BBB influx classification (blood-brain barrier)	Capillary fraction [2] [%]	Capillary fraction, first animal (Fig 3) [2] [%]	Capillary fraction, second animal (Fig 3) [2] [%]	Parenchyma fraction, first animal (Fig 3) [2] [%]	Parenchyma fraction, second animal (Fig 3) [2] [%]	Parenchymal fraction [2] [%]	half-life in human plasma [3] [h]	Brain distribution volume, Vg [4] [µL/g]	Kin [4] [µL/g/min]	Kin (text) [4]	kout [5] [min⁻¹]	kout (text) [5]	clearance as % of the plasma flow to the brain [6]
GLWEDLLYNINRYAHYIT [BIP-2, bacteriocin-inducing peptide 2]	strongly accumulated in the liver	low influx	23.1	23.14	23.04	76.86	76.96	76.9	5.345	18.22 ± 1.43	2.68 ± 0.66	2.68 µL/g/min	-0.06 ± 0.02	-0.06 ± 0.02	–
SYPGWSW [PhrCACET1]	–	very high influx	15.1	13.97	16.20	86.03	83.80	84.9	–	54.90 ± 5.75	20.87 ± 7.97	20.87 µL/g/min	-0.02 ± 0.04	-0.02 ± 0.03	–
dermorphin [reference compound]	mainly distributed in the duodenum, followed by the liver	low influx	37.0	–	–	–	–	63.0	–	23.05 ± 1.18	5.26 ± 0.93	5.26 μl/(gxmin)	-0.11 ± 0.02	–	about 0.05%
